Measurements published in patent US10870875B2, “Metalloprotein compositions” (Commonwealth Scientific and Industrial Research Organisation, priority 2014, dated 2020).

How the values were obtained:
[1] = biological target: T1, recombinant honeybee (Apis mellifera) silk protein AmelF3, unmodified, SEQ ID NO: 39 (Apis mellifera, UniProt A0ACM8QI31); assay: Binding of macrocycles/chelates to AmelF3 sponges or films (colour retained after washing, UV/Vis); conditions: qualitative; for binding to silk protein (in words): sponge or film; for Binding properties: sponge, macrocycle in excess, retention of colour after washing
T1 construct: sponges and films
Protocol: Full length, recombinant honeybee silk proteins (AmelF3) without affinity purification tags, were produced by fermentation in Escherichia coli as described in Weisman et al. (2010). Full length, recombinant Weaver Ant/Green Ant (Oecophylla smaragdina) silk proteins (GA1, GA2, GA3, GA4) without affinity purification tags, were produced by fermentation in Escherichia coli following the same procedures as outlined in Weisman et al. (2010).
(§1) AmelF3 sponges were prepared as described in example 1. […] The colour change observed with honeybee silk indicates a change in the coordination of the iron metal centre within the haem group, producing a material with a similar coordination to red haemoglobin. The colour was not removed by extensive washing with 70% methanol, 0.1M HCl or 0.1M NaCl.
An embodiment of the composition of the present invention was formed by co-drying a solution of AmelF3 and haem b. Briefly, 2 mg haem b and 20 mg AmelF3 silk sponge was dissolved in 1 mL of HFIP overnight at room temperature. The solution was aliquoted into either a cuvette or 24-well plate and dried at room temperature. The dried film was soaked overnight in 70% methanol to make the film insoluble in water.
Alternatively, haem b was ‘leached’ into a pre-formed film. The AmelF3 material was formed as described in example 1. The silk material was soaked in a solution of haem b (0.5 mg/mL; haem b in excess) in 70% methanol solution for between 1 and 48 hours followed by washing with 70% methanol to remove any unbound haem b and dried at room temperature.
AmelF3 films with different ratios of haem b to AmelF3 were prepared by co-drying haem and AmelF3 HFIP solutions. At low haem loadings (haem:protein molar ratios of 1:1 and 1:2), a sharp Soret peak at 404 nm was observed, indicative of all the haem being coordinated (FIG. 3). As the concentration of haem b relative to the protein was increased, the Soret peak broadened and shifted to lower wavelengths indicating an increase in the amount of uncoordinated haem (FIG. 3).
(§2) The ability of sponges generated from recombinant AmelF3 to bind a range of macrocyles was tested by adding a solution of the macrocmacrocycle containing an excess of the macrocycle to be tested to the AmelF3 sponge and observing the colour of the sponge and whether the sponge retained colour after washing. The strength of macrocycle binding was assessed qualitatively by assessing the intensity of the colour retained by the sponge after washing. Strong binding to the sponge refers to the finding that the macrocycle cannot be washed out with aqueous methanol, organic solvents, 0.1 M HCl or 0.1 M NaOH.
(§3) Films generated from recombinant honeybee silk protein AmelF3 containing dicyanocobyrinic acid heptamethyl ester were prepared as described in example 3. UV/Vis spectrum were recorded for a film generated from recombinant AmelF3 containing dicyanocobyrinic acid heptamethyl ester and a solution of dicyanocobyrinic acid heptamethyl ester without AmelF3 (FIG. 8).

[2] = biological target: T2, Apis mellifera AmelF3 (SEQ ID NO: 39) variant Tyr76Ala (Apis mellifera, UniProt A0ACM8QI31, Y95A); assay: Binding of chelates to AmelF3 Tyr76Ala sponges or films; conditions: sponge washed with aqueous methanol, qualitative
T2 construct: sponge or film
T2 sequence (A0ACM8QI31 entry or part of it Y95A): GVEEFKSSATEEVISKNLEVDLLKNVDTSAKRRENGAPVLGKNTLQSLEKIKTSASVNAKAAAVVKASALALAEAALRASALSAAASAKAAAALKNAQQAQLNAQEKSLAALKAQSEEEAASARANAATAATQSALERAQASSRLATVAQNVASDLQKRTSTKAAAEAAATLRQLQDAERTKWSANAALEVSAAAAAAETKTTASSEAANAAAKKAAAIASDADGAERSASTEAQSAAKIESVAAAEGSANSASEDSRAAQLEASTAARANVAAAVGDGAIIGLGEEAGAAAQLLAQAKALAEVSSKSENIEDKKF
Protocol: Site directed mutagenesis of honeybee silk proteins was carried using methods known to the person skilled in the art. For example, to generate AmelF3 Tyr76Ala, the forward primer 5′-[…]-3′ (SEQ ID NO: 80) with the corresponding reverse primer was employed and site directed mutagenesis was carried out using Pfx 50 DNA polymerase from Invitrogen following the Pfx50 manufactures instructions. All AmelF3 mutants were expressed and purified using a similar procedure as the unmodified AmelF3 silk protein. To generate AmelF3 Tyr76His, the forward primer 5′-[…]-3′ (SEQ ID NO: 81) with the corresponding reverse primer was employed. To generate AmelF3 Ala97His, the forward primer 5′-[…]-3′ (SEQ ID NO: 82) was used.
To test whether Tyr76 was indeed the coordinating ligand, the present inventors replaced Tyr76 with an alanine using site directed mutagenesis of the AmelF3 silk gene.

[3] = biological target: T3, recombinant honeybee (Apis mellifera) silk protein AmelF3, SEQ ID NO: 39, containing bound haem b (film) (Apis mellifera, UniProt A0ACM8QI31); assay: NO binding to reduced AmelF3-haem b film (UV/Vis); conditions: NO added as diethylamine NONOate to dithionite-reduced film, 50 mM phosphate pH 7; decrease in absorbance at 420 nm, sigmoidal fit modified from Hill equation; read-out: dissociation constant
T3 sequence (A0ACM8QI31 20-335): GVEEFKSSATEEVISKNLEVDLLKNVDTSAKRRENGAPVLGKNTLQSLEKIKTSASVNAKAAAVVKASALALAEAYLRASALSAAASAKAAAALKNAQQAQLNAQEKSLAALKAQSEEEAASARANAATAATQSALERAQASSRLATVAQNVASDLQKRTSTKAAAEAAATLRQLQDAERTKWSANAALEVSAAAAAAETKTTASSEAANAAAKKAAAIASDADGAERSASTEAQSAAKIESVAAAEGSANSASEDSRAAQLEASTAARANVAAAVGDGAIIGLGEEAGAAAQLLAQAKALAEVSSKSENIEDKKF
Source text: A. UV/Vis spectra obtained when silk protein films generated from recombinant honeybee silk protein AmelF3 were bound to increasing NO concentrations. B. Ratio change of absorbance change at 420 nm as NO concentrations are increased. Either the decrease in absorbance at 420 nm or increase in absorbance at 390 nm can be used. The decrease in absorbance at 420 nm can be converted into the fraction of nitric oxide binding site occupied by NO and plotted against NO concentration, and fitted to a sigmoidal curve modified from the Hill equation with a dissociation constant of 6.7 μM and a limit of detection of ˜1 μM.
AmelF3-haem b film was used as the porphyrin-silk film. Freshly prepared sodium dithionite (100 mM) in 50 mM phosphate buffer (pH 7) were used as the reducing agent. 10-100 μL was added to a 50 mM phosphate buffer (pH 7) covering the porphyrin-silk film. Sodium persulfate was used at the oxidising agent a similar manner to sodium dithionite. […] Changes in the UV/Vis spectrum were monitored to determine redox states and measure NO binding (FIGS. 10A and 10B). […]
Exposure to increasing NO concentration caused the Soret peak to shift from 421 nm to 395 nm. From 0-7 μM, there was a linear relationship between the decrease in absorbance at 421 nm and the concentration of NO, with a limit of detection for NO of 1 μM.

AmelF3 in film = assay: Binding of dicyanocobyrinic acid heptamethyl ester to AmelF3 film (UV/Vis); set-up: species or system Apis mellifera; conditions: peak shift from 370 to 360
Protocol: as §3

[4] = system: materials generated from recombinant honeybee silk proteins (AmelF3 sponge); assay: Binding of macrocycles to recombinant AmelF3 honeybee silk sponges, judged by colour retained after washing; set-up: species or system Apis mellifera; conditions: excess macrocycle in solution, intensity of colour retained after washing
Protocol: as §1, §2

Structure (SMILES) | binding to silk protein (in words) [1] | Binding properties [1] | further results
CCC1=C(C)c2cc3[nH]c(cc4[nH]c(cc5nc(cc1n2)C(C)=C5CC)c(C)c4CC)c(C)c3CC [etioporphryin I] | no binding is obtained |  | 
COC(=O)CC[C@@H]1C2=NC(=C\C3=NC(=C(/C)C4=N[C@@](C)([C@@H]5[N-]/C(=C\2C)[C@](C)(CCC(=O)OC)[C@H]5CC(=O)OC)[C@@](C)(CC(=O)OC)[C@@H]4CCC(=O)OC)/[C@@](C)(CC(=O)OC)[C@@H]3CCC(=O)OC)/C1(C)C.[C-]#N.[C-]#N.[Co+3] [Dicyanocobyrinic acid heptamethyl ester, dicyanocobyrinic acid heptamethyl ester] | strongly blind to AmelF3 |  | binding to silk protein (in words) [2]: did not bind
C1=CC2C3=NC(=N\C4N/C(=N\C5=NC(=N\C6N/C(=N\3)c3ccccc36)/C3C=CC=CC53)c3ccccc34)/C2C=C1 (stereo not drawn) [drawing 5, Phthalocyanine] | no binding is obtained |  | 
[N]=O [NO, nitric oxide] |  |  | Kd [3]: 6.7 µM
COC(=O)CC[C@@H]1C2=NC(=C\C3=NC(=C(/C)C4=N[C@@](C)([C@@H]5[N-]/C(=C\2C)[C@](C)(CCC(=O)OC)[C@H]5CC(=O)OC)[C@@](C)(CC(=O)OC)[C@@H]4CCC(=O)OC)/[C@@](C)(CC(=O)OC)[C@@H]3CCC(=O)OC)/C1(C)C.[C-]#N.[C-]#N.[Co+3] [Dicyanocobyrinic acid heptamethyl ester] |  |  | binding to AmelF3 in film (AmelF3 in film): strongly blind
O=S(=O)(O)c1ccc2c(c1)-c1nc-2nc2[nH]c(nc3nc(nc4[nH]c(n1)c1ccc(S(=O)(=O)O)cc41)-c1ccc(S(=O)(=O)O)cc1-3)c1ccc(S(=O)(=O)O)cc21.[Zn+2] [Zn phthalocyanine tetrasulfonic acid, zinc phthalocyanine tetrasulfonic acid] | can bind |  | 
C=Cc1c(C)c2cc3[nH]c(cc4nc(cc5nc(cc1[nH]2)C(C)=C5CCC(=O)OC)C(CCC(=O)OC)=C4C)c(C)c3C=C |  | Does not bind | 
C1=CC2C3=NC(=N\C4N/C(=N\C5=NC(=N\C6N/C(=N\3)c3ccccc36)/C3C=CC=CC53)c3ccccc34)/C2C=C1 (stereo not drawn) [drawing 5] |  |  | Binding properties [4]: Does not bind
C=CC1=C(C)c2cc3[nH]c(cc4nc(cc5[nH]c(cc1n2)c(C)c5CCC(=O)O)C(CCC(=O)O)=C4C)c(C)c3C=C [drawing 1] |  | Strongly binds to silk | Binding properties [4]: Strongly binds to silk
COC(=O)CCC1=C(C)c2cc3[nH]c(cc4nc(cc5[nH]c(cc1n2)c(CCC(=O)OC)c5C)C(S(=O)(=O)O)=C4C)c(S(=O)(=O)O)c3C [drawing 4] |  | Weak binding | Binding properties [4]: Weak binding
O=S(=O)(O)c1ccc2c(c1)-c1nc-2nc2[nH]c(nc3nc(nc4[nH]c(n1)c1ccc(S(=O)(=O)O)cc41)-c1ccc(S(=O)(=O)O)cc1-3)c1ccc(S(=O)(=O)O)cc21 [phthalocyanine tetrasulfonic acid] |  | Strongly binds | 
CCC1=C(C)c2cc3[nH]c(cc4[nH]c(cc5nc(cc1n2)C(C)=C5CC)c(C)c4CC)c(C)c3CC [drawing 2] |  | Does not bind | 
